The source of these data is patent US5354861A, “2-(benzyl)-3-arylbenzofurans as antitumour and hypocholesterolemic agents” (National University of Singapore, priority 1992, dated 1994).

In data set [1] the test system is EL4 cells. Kind of data set: [3H]Thymidine incorporation (antiproliferative activity) by EL4 cells. The class given is cell-based. The following applies: Mus musculus, 48 hours, mean ± SEM of two experiments, read-out: IC50 EL4 (inhibition of [3H]thymidine incorporation). How it is done:
(§1) After 48 hours, each well was pulsed with [^3 H]thymidine (New England Nuclear)(74 KBq/well, 0.02 ml/well) for 60 minutes. Macromolecular incorporation of [^3 H]thymidine was quantitated by harvesting cells on a Brandel harvester fitted with scintillant-coated glass microfibre filters (Ready Filters, Beckman).
(§2) [^3 H]Thymidine incorporation by MCF7 and RTx6 cells was determined by the same technique with the following modifications: (i) cells were plated at 4,500 cells/well (0.18 ml/well); (ii) compounds and [^3 H]thymidine (37 KBq/well, 0.02 ml/well) were added 24 hours after plating; (iii) cells were trypsinized (0.05 ml of 0.05%/0.53 mM EDTA/well) prior to harvesting.
Background: Dividing cells build labelled thymidine or BrdU into new DNA.

Data set [2] concerns antiestrogen-binding sites (AEBS). Kind of data set: Competitive displacement of [3H]tamoxifen from AEBS in EL4 whole cells. As to conditions: 5 nM [3H]tamoxifen, competitor 50 nM-1000 nM, tamoxifen = 100, mean ± SEM of two experiments. How it is done: ^a Determined by competitive ligand binding assays using EL4 whole
cells as the source of AEBS. Cells were incubated with 5 nM [^3
unlabelled competing ligand (50 nM-1000 nM). The binding reaction was
where RBA50 is the concentration required to reduce bound [^3
competiting ligand). The data are the mean ± SEM of two experiments.
For orientation: Loss of bound radioactivity is the signal in a displacement assay; it reports binding, not function.

Data set [3] deals with T1, estrogen receptor (ER) (Homo sapiens, UniProt P03372).
T1 construct: ER present in an established human breast carcinoma-derivedcell line, MCF7; endogenous in cells; host or cells: MCF7 whole cells
T1 sequence (P03372 1-595): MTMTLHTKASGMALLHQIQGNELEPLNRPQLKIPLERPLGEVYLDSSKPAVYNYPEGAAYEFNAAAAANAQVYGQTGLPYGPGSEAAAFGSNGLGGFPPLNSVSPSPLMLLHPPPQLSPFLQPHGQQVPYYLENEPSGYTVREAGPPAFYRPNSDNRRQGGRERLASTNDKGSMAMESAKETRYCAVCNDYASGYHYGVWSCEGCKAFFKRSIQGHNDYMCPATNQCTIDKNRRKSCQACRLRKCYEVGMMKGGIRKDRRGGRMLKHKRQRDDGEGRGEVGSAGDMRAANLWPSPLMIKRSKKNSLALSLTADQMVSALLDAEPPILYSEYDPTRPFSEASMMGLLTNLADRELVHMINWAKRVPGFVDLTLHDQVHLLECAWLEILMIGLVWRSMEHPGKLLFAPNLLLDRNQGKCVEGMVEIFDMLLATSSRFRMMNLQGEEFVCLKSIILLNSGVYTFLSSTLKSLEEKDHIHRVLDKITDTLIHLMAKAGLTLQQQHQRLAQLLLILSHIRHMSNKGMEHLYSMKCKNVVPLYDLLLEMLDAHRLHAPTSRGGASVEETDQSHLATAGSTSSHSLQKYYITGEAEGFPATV
Put plainly: Competitive displacement of [3H]estradiol from ER in MCF7 whole cells. The data set is classed as binding. As to conditions: 5 nM [3H]estradiol, hundredfold excess of test compound, mean ± SEM of two experiments, read-out: Bound [3H]estradiol (% of control). How it is done:
^a Determined by competitive ligand binding assays using MCF7 whole
cells as the receptor source. Cells were incubated with 5 nM [^3
H]estradiol in the absence or presence of a hundredfold excess of DES or
each test compound. The binding reaction was performed and bound [^3
H]estradiol quantitated as described in the experimental section.
^b Bound [^3 H]estradiol in the absence of unlabelled competing
ligand was set at 100%. The data are the mean ± SEM of two experiments

The subject of a further data set is MCF7 cells. Kind of data set: [3H]Thymidine incorporation (antiproliferative activity) by MCF7 cells. The class given is cell-based. The following applies: Homo sapiens, 48 hours, mean ± SEM of two experiments, read-out: IC50 MCF7 (inhibition of [3H]thymidine incorporation). How it is done: as §1, §2
Data set [4] in a line: Cell viability of EL4 cells by trypan blue exclusion. The class given is cell-based. As to conditions: mouse, el4 cells, trypan blue exclusion. How it is done:
(§3) Cell counts were performed manually using a Neubauer hemocytometer. Cell viability was assessed by trypan blue exclusion. The table below (Table HI) is a summary
(§4) De novo synthesis of cholesterol by EL4 cells from [^3 H]acetic acid, sodium salt (Amersham) (103 GBq/mmol) was quantitated using [4-^14 C]cholesterol (Amersham) (2.04 GBq/mmol) as internal standard by the method of Ho et al., J.Exp.Med.(1977) 145:1531-1549). Each determination was performed in triplicate, each consisting of 0.8 ml of a cell suspension (2×10^7 EL4 cells/ml) incubated with [^3 H]acetate (0.25 mM) and the test compound (0.1 ml, 10^-6 M-10^-4 M) for 5 or 48 hours at 37° C.
(§5) ^e Cell viability was estimated by trypan blue exclusion.
(§6) ^d Cell viability was estimated by trypan blue exclusion.

Data set [5] concerns cholesterol biosynthesis by EL4 cells. Put plainly: De novo cholesterol biosynthesis from [3H]acetate by EL4 cells. The class given is cell-based. The following applies: for % total radioactivity incorporated as cholesterol, experiment I / % total radioactivity incorporated as cholesterol, experiment II: single determinations of triplicate; for % total radioactivity incorporated as cholesterol, Mean: two experiments in triplicate. On the procedure:
as §4
^a EL4 cells (20 × 10^6 cells/ml in well) were incubated
with 0.25 mM [^3 H]acetate in the absence or presence of 2 (10^-6
^b EL4 cells (20 × 10^6 cells/ml in well) were incubated
with 0.25 mM [^3 H] acetate in the absence or presence of 2 (10^-
with 0.25 mM [^3 H]acetate in the absence or presence of 4 (10^-4

The subject of the next data set is human breast carcinoma. The following applies: clinical trials; prior art; cited from earlier work.
For data set [6], the system named is estrogen receptor (ER). As to conditions: prior art, cited from earlier work.
Data set [7] has as its system EL4 cells. Kind of data set: Cell viability of EL4 cells by trypan blue exclusion. The class given is cell-based. As to conditions: compound 2, 5 hours. How it is done:
as §3, §4, §5, §6

The conditions of data set [8]: prior art; cited from earlier work.
[9] abbreviates: compound 2, concentration 10^-M [sic], 48 hours.

Molecules are shown by their SMILES. Several values for one entry are separate records, joined by “and”; a condition that tells them apart may be missing. Identical values can stand only once.

In the case of `COc1ccc2c(-c3ccc(OCCN(C)C)cc3)c(Cc3ccc(Cl)cc3)oc2c1` [Compound 1], the IC50 amounted to 950 ± 50 nM with EL4 cells [1] and 5025 ± 25 nM in the data set on MCF7 cells. In data set [2], this compound displayed an RBA of 391 ± 195. Besides, the remaining activity at 0.5 µM on estrogen receptor (ER) [3] amounted to 98 ± 1%.

The viability is a read-out of living cells in per cent, often relative to untreated cells. A low value points to a greater loss of cells. With `COc1ccc2c(-c3ccc(OCCN4CCOCC4)cc3)c(Cc3ccc(Cl)cc3)oc2c1` [Compound 4], the IC50 in the data set on EL4 cells [1] was found to be 335 ± 145 nM. For the same compound, the RBA in [2] turned out to be 1828 ± 446. On estrogen receptor (ER) [3], the remaining activity at 0.5 µM came out at 104 ± 2.5%. In data set [4] (compound 4, 10^-4 M, 5 hours, control 96), the viability at 5 h, 100 µM came out at 79%. In addition, the “% inhibition of cholesterol synthesis” value in data set [5] (compound 4, 10^-4 M, 5 hours, p < 0.05, Student's t test) is 56%. Besides, in [5] (compound 4, 10^-4 M, 5 hours), the “% total radioactivity incorporated as cholesterol, experiment I” value was 0.19% and 0.09% and 0.05%; the “% total radioactivity incorporated as cholesterol, experiment II” value was 0.11% and 0.12%. Besides, the “% total radioactivity incorporated as cholesterol, Mean” value in data set [5] (compound 4, 10^-4 M, 5 hours, control 0.25 ± 0.02) was determined as 0.11 ± 0.03%. In data set [5] (compound 4 at higher concentration (Table V)), the “incorporation of [3H]acetate into cholesterol (in words)” value is “decreased incorporation of [^3 H]acetate into cholesterol”. Further, the IC50 in the data set on MCF7 cells is 6500 ± 500 nM.

As for `CC/C(=C(\c1ccccc1)c1ccc(OCCN(C)C)cc1)c1ccccc1` [1a (Tamoxifen), 1-[4-(2-dimethylaminoethoxy)phenyl]-1,2-diphenylbut1-(Z)-ene], the RBA in [2] is recorded as 100. In addition, in the data set on human breast carcinoma, the “adverse side effects (in words)” value is reported as “low incidence of adverse side effects” and the “clinical efficacy as antiestrogen (in words)” value was “established its efficacy”. Besides, the “antagonist/agonist character (in words)” value in the data set on estrogen receptor (ER) [6] is on record as “partial antagonists/agonists”.

For `COc1ccc2c(-c3ccc(OCCN4CCCCC4)cc3)c(Cc3ccc(Cl)cc3)oc2c1` [Compound 3, 2-(p-Chlorobenzyl)-3-[p-(2-piperidinoethoxy)phenyl]-6-methoxybenzo[b]furan], the IC50 with EL4 cells [1] is 300 ± 150 nM; in the data set with MCF7 cells, 2050 ± 50 nM. In data set [2], the RBA came to 605 ± 371. Besides, at estrogen receptor (ER) [3], the remaining activity at 0.5 µM was 93.5 ± 0.5%.

Take `COc1ccc2c(-c3ccc(OCCN4CCCC4)cc3)c(Cc3ccc(Cl)cc3)oc2c1` [Compound 2, 2-(p-Chlorobenzyl)-3-[p-(2-pyrrolidinoethoxy)phenyl]-6-methoxybenzo[b]furan]: the IC50 stood at 475 ± 225 nM with EL4 cells [1] and 2300 ± 100 nM in the data set on MCF7 cells. This compound also showed an RBA in [2] of 268 ± 92. For the same compound, the viability at 5 h, 1 µM in data set [4] (compound 2, 10^-6 M, 5 hours, control 96) came to 91%. In addition, the viability at 48 h in data set [4] (compound 2, concentration 10^-M [sic], 48 hours, control 92) came out at 87%. Further, in the data set with EL4 cells [7], the “cell viability (in words)” value is “not associated with loss of cell viability”. The “inhibition of cholesterol biosynthesis (in words)” value in [5] (as early as 5 hours after treatment) is on record as “significant inhibition of cholesterol biosynthesis”. The “% inhibition of cholesterol synthesis” value in [5] (compound 2, 10^-6 M, 5 hours, p < 0.01, Student's t test) came out at 48%; in data set [5] (compound 2, concentration 10^-M [sic], 48 hours, p < 0.01, Student's t test), 47%. Also, the “% total radioactivity incorporated as cholesterol, experiment I” value in [5] (compound 2, 10^-6 M, 5 hours) is 0.13% and 0.10% and 0.12%; in [5] (setting [9]) it was 0.16% and 0.15% and 0.24%. The “% total radioactivity incorporated as cholesterol, experiment II” value was 0.11% and 0.12% and 0.14% in data set [5] (compound 2, 10^-6 M, 5 hours); 0.14% and 0.17% in [5] (setting [9]). Also, the “% total radioactivity incorporated as cholesterol, Mean” value in data set [5] (compound 2, 10^-6 M, 5 hours, control 0.23 ± 0.02) came out at 0.12 ± 0.01%; in data set [5] (compound 2, concentration 10^-M [sic], 48 hours, control 0.32 ± 0.02), 0.17 ± 0.02%.

For the compound `O=C(c1ccc(OCCN2CCCC2)cc1)c1c(-c2ccc(O)cc2)sc2cc(O)ccc12` [LY117018], the “duration of action in vivo (in words)” value in data set [8] is given as “shorter duration of action in vivo”. For the same compound, the “antagonist/agonist character (in words)” value in the data set with estrogen receptor (ER) [6] is reported as “partial antagonists/agonists (like tamoxifen)”.

Turning to `COc1ccc(C2=C(C(=O)c3ccc(OCCN4CCCC4)cc3)c3ccccc3CC2)cc1` [Trioxifene], in the data set on human breast carcinoma, the “clinical efficacy as antiestrogen (in words)” value is recorded as “an effective antiestrogen in clinical trials”. In the data set on estrogen receptor (ER) [6] (compared with tamoxifen), the “estrogenic activity (in words)” value is on record as “possesses greater estrogenic activity than tamoxifen”.
